Key:
[1] = Transient Transfection Assay: In a transient set-up, a Huh-7 lunet hepatoma cell line was transiently transfected with an autonomously replicating RNA encoding a bi-cistronic expression construct. This construct comprises a firefly luciferase reporter gene preceding the NS3-NS5B subgenomic region of HCV (genotype 1a H77 or 1b Con1). Translation of the HCV subgenomic region is mediated by an internal ribosome entry site of encephalomyocarditis virus. The construct is furthermore flanked by 5' and 3' untranslated regions of HCV (genotype 1a H77 or 1b Con 1, respectively), which allow for replication of the RNA. In addition to the wild-type constructs, site-directed mutations were introduced into the transient HCV genotype 1b replicon in the gene encoding for the non-structural protein 5A (NS5A). More precisely, amino acid residues 28, 30, 31 and 93 in NS5A were independently altered. Cells were plated in 384 well plates in the presence of test and control compounds, which were added in various concentrations. Following an incubation of two days, replication of the HCV subgenomic replicon RNA was measured by assaying luciferase activity (using standard luciferase assay substrates and reagents and a Perkin Elmer ViewLux™ ultraHTS microplate imager).; type: cell-based
[2] = Stable Transfection Assay: The assay utilized the stably transfected cell line Huh-7 luc/neo (hereafter referred to as Huh-Luc). This cell line harbors an RNA encoding a bicistronic expression construct comprising the wild type NS3-NS5B regions of HCV type 1b translated from an Internal Ribosome Entry Site (IRES) from encephalomyocarditis virus (EMCV), preceded by a reporter portion (FfL-luciferase), and a selectable marker portion (neoR, neomycine phosphotransferase). The construct is flanked by 5' and 3' NTRs (non-translated regions) from HCV type 1b. Continued culture of the replicon cells in the presence of G418 (neoR) is dependent on the replication of the HCV RNA. The stably transfected replicon cells that replicate HCV RNA autonomously and to high levels, encoding inter alia luciferase, were used for screening the antiviral compounds.

Structure (SMILES)	EC50 [1]	EC50 [2]
COC(=O)N[C@H](C(=O)N1CCC[C@H]1c1ncc(-c2ccc3cc(-c4ccc5nc([C@@H]6CCCN6C(=O)[C@@H](NC(=O)OC)[C@@H](C)OC)[nH]c5c4)ccc3c2)[nH]1)C(C)C	7 pM	–
COC(=O)N[C@H](C(=O)N1CCC[C@H]1c1nc2ccc(-c3ccc4cc(-c5cnc([C@@H]6CCCN6C(=O)[C@@H](NC(=O)OC)[C@@H](C)OC)[nH]5)ccc4c3)cc2[nH]1)C(C)C	–	6 pM

From ChEMBL document CHEMBL3886917, “Benzimidazole-imidazole derivatives” (2016)
